Data as given in ChEMBL document CHEMBL1201862, “PubChem BioAssay data set” (2004).
Active and inactive are the calls of the source.

How the values were obtained:
Format in all cases: functional
[1] = biological target: T1, Sentrin-specific protease 7 (Homo sapiens, UniProt Q9BQF6);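 further: Luminescence-based dose-response confirmation of ultra-high-throughput screening hits, measuring inhibition of SENP7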
T1 sequence (Q9BQF6 whole entry): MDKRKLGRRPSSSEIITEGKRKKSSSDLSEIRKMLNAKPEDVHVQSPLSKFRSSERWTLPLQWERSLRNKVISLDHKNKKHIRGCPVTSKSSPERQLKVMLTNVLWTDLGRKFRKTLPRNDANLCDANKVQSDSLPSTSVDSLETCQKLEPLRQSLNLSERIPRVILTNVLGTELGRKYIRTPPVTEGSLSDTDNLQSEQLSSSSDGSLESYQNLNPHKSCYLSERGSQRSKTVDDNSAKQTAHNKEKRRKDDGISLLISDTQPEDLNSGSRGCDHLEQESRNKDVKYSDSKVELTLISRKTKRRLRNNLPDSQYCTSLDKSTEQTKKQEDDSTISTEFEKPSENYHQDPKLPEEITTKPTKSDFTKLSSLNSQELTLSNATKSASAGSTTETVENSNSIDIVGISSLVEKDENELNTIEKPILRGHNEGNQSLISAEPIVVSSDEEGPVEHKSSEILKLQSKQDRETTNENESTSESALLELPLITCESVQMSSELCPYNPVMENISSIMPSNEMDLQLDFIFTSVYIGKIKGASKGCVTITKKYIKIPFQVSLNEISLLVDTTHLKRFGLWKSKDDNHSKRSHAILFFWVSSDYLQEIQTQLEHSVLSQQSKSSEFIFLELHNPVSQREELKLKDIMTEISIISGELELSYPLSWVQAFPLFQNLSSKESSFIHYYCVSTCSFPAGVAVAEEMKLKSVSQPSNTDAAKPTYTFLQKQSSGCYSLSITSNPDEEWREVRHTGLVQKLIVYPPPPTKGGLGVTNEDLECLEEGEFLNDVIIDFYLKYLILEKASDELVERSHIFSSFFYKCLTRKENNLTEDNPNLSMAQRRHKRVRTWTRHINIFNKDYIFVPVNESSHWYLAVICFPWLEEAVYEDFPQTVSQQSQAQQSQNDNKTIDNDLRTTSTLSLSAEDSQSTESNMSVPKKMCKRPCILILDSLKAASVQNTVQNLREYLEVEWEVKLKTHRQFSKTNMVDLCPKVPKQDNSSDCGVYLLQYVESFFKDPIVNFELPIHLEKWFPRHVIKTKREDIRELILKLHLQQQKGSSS

[2] = biological target: T2, Sentrin-specific protease 6 (Homo sapiens, UniProt Q9GZR1);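 further: Luminescence-based dose-response confirmatory assay of SENP6 inhibition, following up an ultra-high-throughput screen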
T2 sequence (Q9GZR1 whole entry): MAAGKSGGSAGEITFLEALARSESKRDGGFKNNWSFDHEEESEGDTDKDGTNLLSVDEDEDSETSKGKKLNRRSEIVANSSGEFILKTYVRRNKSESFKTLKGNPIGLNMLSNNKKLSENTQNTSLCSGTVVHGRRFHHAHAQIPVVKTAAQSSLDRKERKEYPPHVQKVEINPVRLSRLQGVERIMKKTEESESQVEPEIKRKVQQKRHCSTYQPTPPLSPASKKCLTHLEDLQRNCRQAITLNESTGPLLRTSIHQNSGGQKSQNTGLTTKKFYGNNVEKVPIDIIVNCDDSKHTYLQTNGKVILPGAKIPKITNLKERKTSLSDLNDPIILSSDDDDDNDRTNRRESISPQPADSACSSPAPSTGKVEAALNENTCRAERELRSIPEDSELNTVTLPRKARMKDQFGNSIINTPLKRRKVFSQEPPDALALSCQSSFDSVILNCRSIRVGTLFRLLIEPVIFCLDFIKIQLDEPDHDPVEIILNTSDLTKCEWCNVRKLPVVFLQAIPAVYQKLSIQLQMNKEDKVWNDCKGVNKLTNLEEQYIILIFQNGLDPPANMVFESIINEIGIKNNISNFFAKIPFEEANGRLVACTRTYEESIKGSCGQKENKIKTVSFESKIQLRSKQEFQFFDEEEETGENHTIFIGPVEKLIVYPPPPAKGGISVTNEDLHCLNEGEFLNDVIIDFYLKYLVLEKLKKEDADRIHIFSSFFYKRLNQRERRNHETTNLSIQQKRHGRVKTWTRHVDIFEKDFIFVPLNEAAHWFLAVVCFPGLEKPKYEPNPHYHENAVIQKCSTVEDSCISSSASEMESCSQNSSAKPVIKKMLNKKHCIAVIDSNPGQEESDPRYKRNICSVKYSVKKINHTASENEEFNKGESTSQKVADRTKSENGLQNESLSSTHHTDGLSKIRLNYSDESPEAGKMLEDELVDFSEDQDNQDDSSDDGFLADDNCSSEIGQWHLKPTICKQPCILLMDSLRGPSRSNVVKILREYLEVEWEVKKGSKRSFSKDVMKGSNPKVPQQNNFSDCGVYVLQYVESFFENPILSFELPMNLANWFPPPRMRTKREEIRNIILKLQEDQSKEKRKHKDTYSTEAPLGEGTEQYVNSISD

[3] = biological target: T3, Sentrin-specific protease 8 (Homo sapiens, UniProt Q96LD8)
T3 sequence (Q96LD8 whole entry): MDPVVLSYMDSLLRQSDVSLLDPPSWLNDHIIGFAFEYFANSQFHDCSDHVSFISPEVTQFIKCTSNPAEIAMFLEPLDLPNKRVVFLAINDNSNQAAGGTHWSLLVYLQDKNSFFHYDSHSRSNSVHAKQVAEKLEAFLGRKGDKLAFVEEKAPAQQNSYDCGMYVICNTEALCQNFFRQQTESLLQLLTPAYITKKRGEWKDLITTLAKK

[4] = biological target: Acetyl-CoA acetyltransferase/HMG-CoA reductase (Enterococcus faecalis, UniProt Q9FD70); experiment: class II HMG-CoA reductase inhibition potency – biochemical, Enterococcus faecalis, confirmation (AID 1233)
[5] = biological target: T4, Microphthalmia-associated transcription factor (Homo sapiens, UniProt O75030); experiment: reducers of TRPM1 reporter luminescence, concentration series – cell-based, SK-MEL-5, cherry-picked, set 3, MITF inhibitor project, dose response (AID 493073);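 further: SK-MEL-5 melanoma cells with luciferase driven by the MITF target TRPM1 promoter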
T4 sequence (O75030 whole entry): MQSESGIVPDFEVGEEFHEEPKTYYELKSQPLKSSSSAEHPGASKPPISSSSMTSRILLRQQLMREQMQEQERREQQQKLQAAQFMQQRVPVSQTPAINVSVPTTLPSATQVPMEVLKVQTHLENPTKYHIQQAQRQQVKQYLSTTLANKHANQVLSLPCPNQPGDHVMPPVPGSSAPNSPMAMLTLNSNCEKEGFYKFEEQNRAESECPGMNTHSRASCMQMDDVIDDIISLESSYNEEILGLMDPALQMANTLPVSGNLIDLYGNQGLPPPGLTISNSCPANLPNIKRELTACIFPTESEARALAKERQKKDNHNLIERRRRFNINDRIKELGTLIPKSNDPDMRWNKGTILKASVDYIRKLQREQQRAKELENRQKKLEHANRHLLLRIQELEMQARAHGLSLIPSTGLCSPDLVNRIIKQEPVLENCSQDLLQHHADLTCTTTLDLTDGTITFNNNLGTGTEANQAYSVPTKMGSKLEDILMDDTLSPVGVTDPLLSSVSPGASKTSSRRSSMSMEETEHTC

## CC(C)=CCC1=C(OCC(=O)O)C(=O)c2ccccc2C1=O
[1]
  IC50: 3.97 µM (active)
[2]
  IC50: 2.53 µM (active)

## Cc1[nH][nH]c(=O)c1C(c1c(C)[nH][nH]c1=O)c1cn(Cc2ccccc2Cl)c2ccccc12
[3]
  IC50: 4.8 µM (active)
[4]
  IC50: 91 µM (active)

## Cc1cccc(NC2=C(NC(=O)c3ccccc3)C(=O)c3ccccc3C2=O)c1
[5]
  AC50: 9.99 µM (active)
